Laboratory results: patent US5104866A, “Water-soluble antibiotic composition and water-soluble salts of cephem compounds” (Fujisawa Pharmaceutical Company, Ltd., priority 1987, dated 1992)
Where a name gives a salt, the structure may show the parent alone.

Tests used:
[1] = Dissolution test: velocity of dissolution of test samples after addition of distilled water at ambient temperature; format: physicochemical; settings: reference sample without carbonic acid salt
Method: As a comparison, the following reference samples were also tested.
The velosity of dissolution of the test samples were observed after addition of distilled water into said test samples at ambient temperature,respectively.

P. aeruginosa 26 = test: In vitro antibacterial activity, two-fold agar-plate dilution method (MIC); format: cell-based; settings: Pseudomonas aeruginosa, HI-agar, 10^6 viable cells per ml, 37° C., 20 hours, read-out: minimal inhibitory concentration (MIC)
Method: Sodium 7-[2-allyloxyimino-2-(5-carboxylatoamino-1,2,4-thiadiazol-3-yl)acetamido]- 3-(1-pyridinio)methyl-3-cephem-4-carboxylate (syn isomer).
In vitro antibacterial activity was determined by the two-fold agar-plate dilution method as described below.

SMILES | Maximum concentration of this sample dissolved in water [1] | MIC (P. aeruginosa 26) [µg/mL]
C=CCO/N=C(\C(=O)NC1C(=O)N2C(C(=O)[O-])=C(C[n+]3ccccc3)CSC12)c1nsc(N)n1 (stereo not drawn) [Reference Sample (1), 7-[2-allyloxyimino-2-(5-amino-1,2,4-thiadiazol-3-yl)acetamido]-3-(1-pyridinio)methyl-3-cephem-4-carboxylate (syn isomer)] | 4.07 % (w/v) | –
C=CCO/N=C(\C(=O)NC1C(=O)N2C(C(=O)[O-])=C(C[n+]3ccccc3)CSC12)c1nsc(N)n1 (stereo not drawn) [Reference Sample (2), 7-[2-allyloxyimino-2-(5-amino-1,2,4-thiadiazol-3-yl)acetamido]-3-(1-pyridinio)methyl-3-cephem-4-carboxylate hydrochloride (syn isomer)] | 8.28 % (w/v) | –
CO/N=C(\C(=O)NC1C(=O)N2C(C(=O)[O-])=C(C[n+]3ccccc3)CSC12)c1nsc(N)n1 (stereo not drawn) [Reference Sample (3), 7-[2-(5-amino-1,2,4-thiadiazol-3-yl)-2-methoxyiminoacetamido]-3-(1-pyridinio)methyl-3-cephem-4-carboxylate (syn isomer)] | 2 % (w/v) | –
CO/N=C(\C(=O)NC1C(=O)N2C(C(=O)[O-])=C(C[n+]3ccccc3)CSC12)c1nsc(N)n1 (stereo not drawn) [Reference Sample (4), 7-[2-(5-amino-1,2,4-thiadiazol-3-yl)-2-methoxyiminoacetamido]-3-(1-pyridinio)methyl-3-cephem-4-carboxylate sulfate (syn isomer)] | 10 % (w/v) | –
C=CCO/N=C(\C(=O)NC1C(=O)N2C(C(=O)[O-])=C(C[n+]3ccccc3)CSC12)c1nsc(NC(=O)O)n1 (stereo not drawn) [Test salt, Sodium 7-[2-allyloxyimino-2-(5-carboxylatoamino-1,2,4-thiadiazol-3-yl)acetamido]-3-(1-pyridinio)methyl-3-cephem-4-carboxylate (syn isomer)] | – | 0.39
